Measurements from patent publication US8754054B2, “Antibacterial compounds, methods of making them, and uses thereof” (Albany Molecular Research, Inc., priority 2010, dated 2014).

What was measured:
Experiment in all cases: Antibacterial activity in vitro, NCCLS dilution method (Table 10)
Type in all cases: cell-based
[1] = tested on: S. epidermidis 1597; conditions: S. epidermidis 1597, Gram +, MSSE
Text: (§1) NCCLS standards for antimicrobial susceptibility testing using the dilution method were followed. See: Performance Standards for Antimicrobial Susceptibility Testing; Fourteenth Informational Supplement. NCCLS Document M100-S14 (ISBN 1-56238-516-X), 2004. NCCLS, 940 West Valley Road, Suite 1400, Wayne, Pa. 19087-1898 USA, 2004; Methods for Dilution Antimicrobial Susceptibility Tests for Bacteria that Grow Aerobically; Approved Standard—Sixth Edition. NCCLS document M7-A6 (IBSBN 1-56238-486-4), NCCLS, 940 West Valley Road, Suite 1400, Wayne, Pa. 19087-1898 USA, 2003, which are hereby incorporated by reference in their entirety.

[2] = tested on: S. aureus (ATCC 29213); conditions: Gram +, MSSA
Text: as §1

[3] = tested on: E. faecium 700221; conditions: E. faecium 700221, Gram +, VRE
Text: as §1

[4] = tested on: S. saprophyticus 495; conditions: S. saprophyticus 495, Gram +
Text: as §1

[5] = tested on: P. aeruginosa (ATCC 27853); conditions: Gram −
Text: as §1

[6] = tested on: M. catarrhalis 557; conditions: M. catarrhalis 557, Gram −
Text: as §1

[7] = tested on: H. influenzae 1742; conditions: H. influenzae 1742, Gram −, ampR
Text: as §1

[8] = tested on: E. coli 2269; conditions: E. coli 2269, Gram −, ESBL-producer
Text: as §1

[9] = tested on: K. pneumoniae 2262; conditions: K. pneumoniae 2262, Gram −, ampC, MDR
Text: as §1

[10] = tested on: S. marcescens 1635; conditions: S. marcescens 1635, Gram −
Text: as §1

[11] = tested on: S. aureus 1725; conditions: S. aureus 1725, Gram +, LRSA
Text: as §1

[12] = tested on: E. faecalis 846; conditions: E. faecalis 846, Gram +, VRE
Text: as §1

[13] = tested on: K. pneumoniae 2239; conditions: K. pneumoniae 2239, Gram −
Text: as §1

[14] = tested on: S. pneumoniae 933; conditions: S. pneumoniae 933, Gram +, MDR
Text: as §1

[15] = tested on: H. parainfluenzae 2319 (ATCC 7901); conditions: Gram −
Text: as §1

[16] = tested on: S. aureus 1137; conditions: S. aureus 1137, Gram +, MRSA
Text: as §1

[17] = tested on: S. pneumoniae 940; conditions: S. pneumoniae 940, Gram +, PRSP
Text: as §1

[18] = tested on: E. coli 102 (ATCC 25922); conditions: Gram −, QC strain
Text: as §1

[19] = tested on: S. pneumoniae 376; conditions: S. pneumoniae 376, Gram +, Quin-R
Text: as §1

[20] = tested on: S. agalactiae 2033; conditions: S. agalactiae 2033, Gram +
Text: as §1

[21] = tested on: S. pneumoniae 975; conditions: S. pneumoniae 975, Gram +, PSSP
Text: as §1

[22] = tested on: S. aureus 2144; conditions: S. aureus 2144, Gram +, CA, USA 300 Strain
Text: as §1

[23] = tested on: S. aureus 2018; conditions: S. aureus 2018, Gram +, VISA
Text: as §1

[24] = tested on: S. aureus 2012; conditions: S. aureus 2012, Gram +, VISA
Text: as §1

[25] = tested on: S. aureus (ATCC 6538); conditions: Gram +, MSSA
Text: as §1

[26] = tested on: S. aureus 1651; conditions: S. aureus 1651, Gram +, LRSA
Text: as §1

[27] = tested on: S. aureus (ATCC 43300); conditions: Gram +, MRSA
Text: as §1

[28] = tested on: S. epidermidis 1452; conditions: S. epidermidis 1452, Gram +, MRSE
Text: as §1

[29] = tested on: S. pyogenes 723; conditions: S. pyogenes 723, Gram +
Text: as §1

Row | SMILES | antibacterial activity (dilution susceptibility test) [1] | antibacterial activity (dilution susceptibility test) [2] | antibacterial activity (dilution susceptibility test) [3] | antibacterial activity (dilution susceptibility test) [5] | antibacterial activity (dilution susceptibility test) [6] | antibacterial activity (dilution susceptibility test) [7] | antibacterial activity (dilution susceptibility test) [8] | antibacterial activity (dilution susceptibility test) [9] | antibacterial activity (dilution susceptibility test) [10] | antibacterial activity (dilution susceptibility test) [11] | antibacterial activity (dilution susceptibility test) [13] | antibacterial activity (dilution susceptibility test) [15] | antibacterial activity (dilution susceptibility test) [16] | antibacterial activity (dilution susceptibility test) [17] | antibacterial activity (dilution susceptibility test) [18] | antibacterial activity (dilution susceptibility test) [19] | antibacterial activity (dilution susceptibility test) [21] | antibacterial activity (dilution susceptibility test) [24] | antibacterial activity (dilution susceptibility test) [25] | antibacterial activity (dilution susceptibility test) [27] | further results
1 | COC(=O)c1c(C)cc2c(c1O)[C@]1(O)C(=O)c3cc4c(c(O)c3C(=O)[C@]1(OC)[C@H](O)C2)C(=O)C=C(N[C@H]1O[C@@H](C)[C@H](OC)[C@@H](O)[C@H]1OC)C4=O [Cmpd 12] | ≦0.06 | ≦0.06 | 0.06 | 32 | 0.12 | 4 | 32 | 64 | 64 | ≦0.06 | 64 | 8 | ≦0.06 | ≦0.06 | 32 | ≦0.06 | ≦0.06 | ≦0.06 | 0.008 | 0.008 | antibacterial activity (dilution susceptibility test) [4]: ≦0.06; antibacterial activity (dilution susceptibility test) [12]: ≦0.06; antibacterial activity (dilution susceptibility test) [14]: ≦0.06; antibacterial activity (dilution susceptibility test) [20]: ≦0.06; antibacterial activity (dilution susceptibility test) [22]: ≦0.06; antibacterial activity (dilution susceptibility test) [23]: ≦0.06; antibacterial activity (dilution susceptibility test) [26]: ≦0.06; antibacterial activity (dilution susceptibility test) [28]: ≦0.06; antibacterial activity (dilution susceptibility test) [29]: ≦0.06
2 | CC(=O)NC[C@H]1CN(c2ccc(N3CCOCC3)c(F)c2)C(=O)O1 [Linezolid] | – | 4 | 1 | >64 | 8 | 8 | >64 | >64 | >64 | 4 | >64 | 16 | 4 | 0.5 | >64 | 1 | 1 | 1 | 0.5 | 1 | –
3 | CN[C@H](CC(C)C)C(=O)N[C@H]1C(=O)N[C@@H](CC(N)=O)C(=O)N[C@H]2C(=O)N[C@H]3C(=O)N[C@H](C(=O)N[C@H](C(=O)O)c4cc(O)cc(O)c4-c4cc3ccc4O)[C@H](O)c3ccc(c(Cl)c3)Oc3cc2cc(c3O[C@@H]2O[C@H](CO)[C@@H](O)[C@H](O)[C@H]2O[C@H]2C[C@](C)(N)[C@H](O)[C@H](C)O2)Oc2ccc(cc2Cl)[C@H]1O [Vancomycin] | 2 | 1 | >64 | >64 | >64 | >64 | >64 | >64 | >64 | 1 | >64 | 64 | 1 | 0.25 | >64 | 0.5 | 0.5 | 8 | 0.5 | 2 | antibacterial activity (dilution susceptibility test) [4]: 1; antibacterial activity (dilution susceptibility test) [12]: >64; antibacterial activity (dilution susceptibility test) [14]: 0.5; antibacterial activity (dilution susceptibility test) [20]: 0.5; antibacterial activity (dilution susceptibility test) [22]: 1; antibacterial activity (dilution susceptibility test) [23]: 8; antibacterial activity (dilution susceptibility test) [26]: 1; antibacterial activity (dilution susceptibility test) [28]: 2; antibacterial activity (dilution susceptibility test) [29]: 0.5
4 | C[C@@H](O)[C@H]1C(=O)N2C(C(=O)O)=C(S[C@@H]3CN[C@H](C(=O)N(C)C)C3)[C@H](C)[C@H]12 [Meropenem] | – | 0.12 | – | – | ≦0.04 | 0.06 | 0.03 | >4 | 0.12 | 0.25 | 0.06 | 0.03 | >4 | 1 | 0.03 | 0.015 | 0.015 | >4 | – | – | –
